Laboratory results published in patent US20110098296A1, “Thiazole And Oxazole Kinase Inhibitors” (priority 2007, published 2011).
Counter-ions that a name gives are not always drawn.

How the values were obtained:
[1] = system: Colo205 tumor cells; assay: Method C: Cell Growth Inhibition Assay (CellTiter-Glo), Colo205; format: cell-based; conditions: Homo sapiens, COLO 205, 72 h, 3 days, 4-parameter fit
Procedure: (§1) Human breast tumor cells (BT474) were cultured in RPMI (Mediatech 50-011-PB), containing 10% FBS (JRH Biosciences 12176) and 1% penicillin-streptomycin (Invitrogen 15140). Human head and neck tumor cells (HN5) were cultured in high glucose DMEM (Mediatech 50-013-PB) containing 10% FBS and 1% penicillin-streptomycin. Human colon tumor cells (Colo205) were cultured in RPMI (Mediatech 50-020-PB) containing 10% FBS and 1% penicillin-streptomycin. Human melanoma cancer cells (SK-MEL-28) were cultured in EMEM with nonessential amino acids (Mediatech 50-011-PB) containing 10% FBS, 1% sodium pyruvate (JT Baker 3354-04), and 1% penicillin-streptomycin. Human melanoma cancer cells (A375P F11s) were cultured in RPMI (Mediatech 50-020-PB) containing 10% FBS, 1% sodium pyruvate, and 1% penicillin-streptomycin. Human colon cancer cells (HT-29) were cultured in high glucose DMEM (Mediatech 50-013-PB) containing 10% FBS and 1% penicillin-streptomycin. Human melanoma cancer cells (SK-MEL-3) were cultured in McCoy's 5A (50-025-PB) containing 15% FBS, and 1% penicillin-streptomycin. All cell lines were maintained at 37° C. in a humidified 5% CO2, 95% air incubator. Cells were harvested using trypsin/EDTA (Invitrogen 25200), counted using an haemocytometer, and plated. For 96-well assays (using white full-area NUNC plates cat. #136102), cells were plated in 105 μL at the following densities (cells/well): HN5, 500; Colo205, 500; SK-MEL-28, 500; A375P-F11s, 500; HT-29, 500; SK-MEL-3, 500; and BT474, 3000. For 384-well assays (white full-area NUNC plates, cat. #781080), cells were plated in 48 μL at the following densities (cells/well): HN5, 500; Colo205, 500; SK-MEL-28, 500; A375P-F11s, 500; HT29, 500; SK-MEL-3, 500; and BT474, 2000.
(§2) The next day, compounds were diluted as follow: For 96-well assays, 13.5 μL of compound in DMSO were diluted using nine (9) serial 1:3 dilutions of 4.5 μL in 9 μL of DMSO. Medium (270 μl/well of RPMI with 10% FBS and 1% penicillin-streptomycin) was added to the plates. Aliquots (7 μl) were added to cells in the final assay giving a final DMSO concentration of 0.2%. For 384-well assays, 15 μL of compound in DMSO were diluted using nine (9) serial 1:3 dilutions of 5 μL in 10 μL of DMSO, followed by a further dilution of 5 μL of compound with 95 μL of medium, of which 2 μL were added to cells in the final assay giving a final DMSO concentration of 0.2%. Cells were incubated at 37° C., 5% CO2 for 3 days.
(§3) Total ATP was measured (as a surrogate estimate of cell number) using CellTiter-Glo® reagent (Promega G7571). Briefly, plates were removed from the incubator and allowed to equilibrate to room temperature for 30 minutes. CellTiter-Glo® (25 μL or 55 μL for 384-well or 96-well assays, respectively) reagent was added to each well and plates were shaken on an orbital plate shaker for 2 mins. Plates were incubated without shaking for a further 30 mins and read on an LJL Analyst GT reader in luminometer mode with an integration time of 0.5 seconds per well. Percent inhibition of cell growth was calculated relative to DMSO vehicle-treated control wells. Concentration of compound required to give 50% inhibition of vehicle-treated control cell growth (IC50) was interpolated using a 4-parameter fit for determining IC50 using the following equation: Y=A+((B−A)/(1+((C/X)̂D))) where X=IC50.

[2] = system: BT474 tumor cells; assay: Method C: Cell Growth Inhibition Assay (CellTiter-Glo), BT474; format: cell-based; conditions: Homo sapiens, BT-474, 72 h, 3 days, 4-parameter fit
Procedure: as §1, §2, §3

[3] = system: SK-MEL-28 tumor cells; assay: Method C: Cell Growth Inhibition Assay (CellTiter-Glo), SK-MEL-28; format: cell-based; conditions: Homo sapiens, SK-MEL-28, 72 h, 3 days, 4-parameter fit
Procedure: as §1, §2, §3

[4] = biological target: T1, ErbB2 (Homo sapiens, UniProt P04626); assay: ErbB-2 substrate phosphorylation assay (HTRF); format: biochemical; conditions: Method (A): Enzyme Mix incubated with compound at 20° C. for 1 hr, reaction started by adding Substrate Mix
T1 construct: made in house; host or cells: baculovirus expression system
T1 sequence (P04626 23-1255): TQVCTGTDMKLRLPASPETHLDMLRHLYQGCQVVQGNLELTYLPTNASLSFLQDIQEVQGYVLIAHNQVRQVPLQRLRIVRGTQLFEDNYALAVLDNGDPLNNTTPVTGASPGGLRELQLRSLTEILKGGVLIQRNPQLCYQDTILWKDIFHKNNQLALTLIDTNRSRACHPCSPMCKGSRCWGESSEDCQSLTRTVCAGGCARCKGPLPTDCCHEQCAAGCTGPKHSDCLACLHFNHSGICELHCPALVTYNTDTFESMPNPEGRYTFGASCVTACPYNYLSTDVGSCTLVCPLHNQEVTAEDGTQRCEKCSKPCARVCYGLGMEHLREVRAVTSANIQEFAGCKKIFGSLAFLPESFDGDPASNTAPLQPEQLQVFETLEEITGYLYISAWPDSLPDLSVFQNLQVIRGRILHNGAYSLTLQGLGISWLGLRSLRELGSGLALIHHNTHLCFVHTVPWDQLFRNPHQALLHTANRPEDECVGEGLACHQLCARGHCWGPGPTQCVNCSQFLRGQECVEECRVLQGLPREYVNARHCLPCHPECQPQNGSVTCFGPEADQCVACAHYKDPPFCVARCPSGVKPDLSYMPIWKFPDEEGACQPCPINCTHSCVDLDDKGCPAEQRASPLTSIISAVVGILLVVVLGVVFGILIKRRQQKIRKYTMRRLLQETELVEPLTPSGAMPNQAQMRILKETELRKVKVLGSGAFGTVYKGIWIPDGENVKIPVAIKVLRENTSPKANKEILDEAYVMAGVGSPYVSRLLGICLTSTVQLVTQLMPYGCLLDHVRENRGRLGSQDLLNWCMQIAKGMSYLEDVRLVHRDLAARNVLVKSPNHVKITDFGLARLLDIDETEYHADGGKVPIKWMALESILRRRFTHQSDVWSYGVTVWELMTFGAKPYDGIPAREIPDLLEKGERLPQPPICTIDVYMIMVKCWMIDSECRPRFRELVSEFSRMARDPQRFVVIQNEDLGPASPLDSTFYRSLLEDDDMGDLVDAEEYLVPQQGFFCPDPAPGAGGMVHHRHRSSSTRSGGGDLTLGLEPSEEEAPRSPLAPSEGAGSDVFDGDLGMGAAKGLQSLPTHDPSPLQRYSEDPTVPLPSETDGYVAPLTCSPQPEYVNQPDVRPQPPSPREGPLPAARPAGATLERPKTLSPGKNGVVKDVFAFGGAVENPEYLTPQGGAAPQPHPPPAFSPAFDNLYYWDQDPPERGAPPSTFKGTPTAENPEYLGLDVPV
Procedure: (§4) Compounds of the present invention were tested for EGFR and ErbB-2 protein tyrosine kinase inhibitory activity in substrate phosphorylation assays using enzymes purified from a baculovirus expression system. Reagent production was conducted essentially as described in Brignola, P. S., et al., (2002) J. Biol. Chem. 277(2):1576-1585.
(§5) The method measures the ability of the isolated enzyme to catalyse the transfer of the gamma-phosphate from ATP onto the tyrosine residue of a biotinylated synthetic peptide referenced “Peptide C” in Brignola, P. S., et al., (2002) J. Biol. Chem. 277(2):1576-1585. The extent of tyrosine phosphorylation was measured using an anti-phosphotyrosine antibody, and quantified by homogenous time-resolved fluorescence (HTRF).
(§6) Reactions were performed in black 384-well polystyrene flat-bottom plates in a final volume of 20 μl. Assays were performed by adding 10 μl of each of the following solutions, Substrate Mix and Enzyme Mix: The Substrate Mix contained 100 mM 3-[N-morpholino]propanesulfonic acid (MOPS) (pH 7.5), 2 mM MnCl2, 20 μM ATP, 0.01% Tween-20, 0.1 mg/mL (BSA), 0.8 uM peptide substrate, and 1 mM dithiothreitol. The Enzyme Mix contained 100 mM MOPS (pH 7.5); 0.01% Tween-20; 0.1 mg/mL BSA, and either 0.8 nM EGFR, 10 nM ErbB2, or 1 nM ErbB4
(§7) During the course of these studies, two separate methods have been used to measure the potency of compounds. In Method A (indicated as “(A)” in the tables below), the Enzyme Mix was added to the compound plates and the plates were incubated at 20° C. for 1 hr. The reactions were then started by adding the Substrate Mix. In Method B (indicated as “(B)” in the tables below), the Substrate Mix was added to the compound plates first, then the reaction was started by adding the Enzyme Mix.
(§8) After initiating the reaction with either method describe above, the reactions were allowed to proceed for 90 minutes at 20° C. The reactions were then terminated by the addition of 20 μL 100 mM EDTA to each well. 40 μL/well of HTRF detection mix were added to the assay plates. The final concentrations of the detection reagents were: 100 mM HEPES (pH7.5), 0.1 mg/mL BSA, 15 nM streptavidin-labeled allophycocyanin (PerkinElmer), and 1 nM europium-labeled anti-phosphotyrosine antibody (PerkinElmer). Assay plates were left unsealed and were counted in a Wallac Multilabel Counter 1420 (PerkinElmer).
(§9) Compounds under analysis were dissolved in dimethylsulfoxide (DMSO) to 1.0 mM and serially diluted 1 to 3 with DMSO through twelve dilutions. 1 μL of each concentration was transferred to the corresponding well of an assay plate. This creates a final compound concentration range from 0.00027 to 47.6 μM.
(§10) The data for dose responses were plotted as % Inhibition calculated with the data reduction formula 100*(1−(U1−C2)/(C1−C2)) versus concentration of compound where U1 is the unknown value, C1 is the average control value obtained for 4.76% DMSO, and C2 is the average control value obtained for 0.035 M EDTA. Data were fitted with a curve described by:
(§11) where Vmax is the upper asymptote, Y2 is the Y intercept, and K is the IC50. The results for each compound were recorded as pIC50s, calculated as follows: […]

[5] = biological target: T2, EGFR (Homo sapiens, UniProt P00533); assay: EGFR substrate phosphorylation assay (HTRF); format: biochemical; conditions: Method (A): Enzyme Mix incubated with compound at 20° C. for 1 hr, reaction started by adding Substrate Mix
T2 construct: made in house; host or cells: baculovirus expression system
T2 sequence (P00533 25-1210): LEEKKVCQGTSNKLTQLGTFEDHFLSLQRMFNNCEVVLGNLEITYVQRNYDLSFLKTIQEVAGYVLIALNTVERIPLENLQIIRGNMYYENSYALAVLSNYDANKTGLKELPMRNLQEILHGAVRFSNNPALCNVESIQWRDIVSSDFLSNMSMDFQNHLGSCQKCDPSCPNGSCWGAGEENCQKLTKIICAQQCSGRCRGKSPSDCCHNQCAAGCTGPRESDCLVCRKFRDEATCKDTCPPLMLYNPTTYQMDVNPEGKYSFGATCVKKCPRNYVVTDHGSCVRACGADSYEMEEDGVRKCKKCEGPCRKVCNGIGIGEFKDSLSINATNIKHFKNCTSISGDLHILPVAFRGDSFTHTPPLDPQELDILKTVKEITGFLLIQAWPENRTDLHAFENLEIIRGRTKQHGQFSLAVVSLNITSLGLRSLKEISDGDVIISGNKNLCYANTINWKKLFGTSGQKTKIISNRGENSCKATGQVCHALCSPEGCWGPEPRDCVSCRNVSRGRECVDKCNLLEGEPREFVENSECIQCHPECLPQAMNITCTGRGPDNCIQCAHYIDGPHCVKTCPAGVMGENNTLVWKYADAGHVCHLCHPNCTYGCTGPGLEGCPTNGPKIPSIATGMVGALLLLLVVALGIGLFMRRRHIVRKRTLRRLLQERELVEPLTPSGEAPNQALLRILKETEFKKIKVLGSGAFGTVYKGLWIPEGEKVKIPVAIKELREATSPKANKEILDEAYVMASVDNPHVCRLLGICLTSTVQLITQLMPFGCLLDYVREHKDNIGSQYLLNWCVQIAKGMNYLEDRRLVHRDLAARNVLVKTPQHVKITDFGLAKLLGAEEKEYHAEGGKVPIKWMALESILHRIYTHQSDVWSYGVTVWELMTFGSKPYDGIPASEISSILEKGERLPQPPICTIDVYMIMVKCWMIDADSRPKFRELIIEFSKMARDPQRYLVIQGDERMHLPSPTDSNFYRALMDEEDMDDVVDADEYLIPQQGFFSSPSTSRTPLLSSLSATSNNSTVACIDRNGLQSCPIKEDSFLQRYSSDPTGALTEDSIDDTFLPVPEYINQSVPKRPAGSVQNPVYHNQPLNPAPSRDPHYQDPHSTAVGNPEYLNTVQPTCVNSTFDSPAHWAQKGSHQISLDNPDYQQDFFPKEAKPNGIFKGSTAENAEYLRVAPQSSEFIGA
Procedure: as §4, §5, §6, §7, §8, §9, §10, §11

IC50 [1]	IC50 [2]	IC50 [3]	IC50 [4]	IC50 [5]	Structure (SMILES)
> 1000 nM	> 1000 nM	> 1000 nM	< 100 nM	< 100 nM	O=C(Nc1cccc(-c2nc(N3CCC3)sc2-c2ccnc(Nc3ccc(OCCN4CCCC4)c(Cl)c3)n2)c1)c1c(F)cccc1F [Example 47, N-[3-(2-(1-Azetidinyl)-5-{2-[(3-chloro-4-{[2-(1-pyrrolidinyl)ethyl]oxy}phenyl)amino]-4-pyrimidinyl}-1,3-thiazol-4-yl)phenyl]-2,6-difluorobenzamide]
> 1000 nM	100 to 1000 nM	> 1000 nM	< 100 nM	< 100 nM	Cc1cccc(C(=O)Nc2cccc(-c3nc(C)sc3-c3ccnc(Nc4ccc(OCCN(C)C)c(Cl)c4)n3)c2)c1 [Example 135, N-[3-(5-{2-[(3-Chloro-4-{[2-(dimethylamino)ethyl]oxy}phenyl)amino]-4-pyrimidinyl}-2-methyl-1,3-thiazol-4-yl)phenyl]-3-methylbenzamide]
100 to 1000 nM	100 to 1000 nM	> 1000 nM	< 100 nM	< 100 nM	CC(C)(C)S(=O)(=O)Cc1nc(-c2cccc(NC(=O)c3c(F)cccc3F)c2)c(-c2ccnc(Nc3ccc(OCCN4CCCC4)c(Cl)c3)n2)s1 [Example 119]
> 1000 nM	> 1000 nM	> 1000 nM	< 100 nM	< 100 nM	COc1ccccc1C(=O)Nc1cccc(-c2nc(C)sc2-c2ccnc(Nc3ccc4c(c3)CN(C)CC4)n2)c1 [Example 130, N-[3-(2-Methyl-5-{2-[(2-methyl-1,2,3,4-tetrahydro-7-isoquinolinyl)amino]-4-pyrimidinyl}-1,3-thiazol-4-yl)phenyl]-2-(methyloxy)benzamide]
> 1000 nM	100 to 1000 nM	> 1000 nM	< 100 nM	< 100 nM	Cc1nc(-c2cccc(NC(=O)c3cccc(Cl)c3)c2)c(-c2ccnc(Nc3ccc(OCCN(C)C)c(Cl)c3)n2)s1 [Example 136, 3-Chloro-N-[3-(5-{2-[(3-chloro-4-{[2-(dimethylamino)ethyl]oxy}phenyl)amino]-4-pyrimidinyl}-2-methyl-1,3-thiazol-4-yl)phenyl]benzamide]
100 to 1000 nM	100 to 1000 nM	100 to 1000 nM	< 100 nM	< 100 nM	CN1CCC(c2nc(-c3cccc(NC(=O)c4c(F)cccc4F)c3)c(-c3ccnc(Nc4ccc5c(c4)CN(C)CC5)n3)s2)CC1 [Example 125, 2,6-Difluoro-N-[3-(2-(1-methyl-4-piperidinyl)-5-{2-[(2-methyl-1,2,3,4-tetrahydro-7-isoquinolinyl)amino]-4-pyrimidinyl}-1,3-thiazol-4-yl)phenyl]benzamide]
> 1000 nM	100 to 1000 nM	> 1000 nM	< 100 nM	< 100 nM	Cc1nc(-c2cccc(NC(=O)c3cccnc3F)c2)c(-c2ccnc(Nc3ccc4c(c3)CN(C)CC4)n2)s1 [Example 137, 2-Fluoro-N-[3-(2-methyl-5-{2-[(2-methyl-1,2,3,4-tetrahydro-7-isoquinolinyl)amino]-4-pyrimidinyl}-1,3-thiazol-4-yl)phenyl]-3-pyridinecarboxamide trifluoroacetate]
100 to 1000 nM	< 100 nM	> 1000 nM	< 100 nM	< 100 nM	CN1CCc2ccc(Nc3nccc(-c4sc(CS(=O)(=O)C(C)(C)C)nc4-c4cccc(NC(=O)c5c(F)cccc5F)c4)n3)cc2C1 [Example 120, N-[3-(2-{[(1,1-Dimethylethyl)sulfonyl]methyl}-5-{2-[(2-methyl-1,2,3,4-tetrahydro-7-isoquinolinyl)amino]-4-pyrimidinyl}-1,3-thiazol-4-yl)phenyl]-2,6-difluorobenzamide]
> 1000 nM	> 1000 nM	> 1000 nM	< 100 nM	< 100 nM	CN(C)CCOc1ccc(Nc2nccc(-c3sc(NS(=O)(=O)CC(F)(F)F)nc3-c3cccc(NC(=O)c4c(F)cccc4F)c3)n2)cc1 [Example 35, N-[3-(5-{2-[(4-{[2-(Dimethylamino)ethyl]oxy}phenyl)amino]-4-pyrimidinyl}-2-{[(2,2,2-trifluoroethyl)sulfonyl]amino}-1,3-thiazol-4-yl)phenyl]-2,6-difluorobenzamide]
> 1000 nM	100 to 1000 nM	> 1000 nM	< 100 nM	< 100 nM	CC(C)(C)c1nc(-c2cccc(NC(=O)c3c(F)cccc3F)c2)c(-c2ccnc(Nc3cccc(CN4CCCC4)c3)n2)s1 [Example 123, N-{3-[2-(1,1-Dimethylethyl)-5-(2-{[3-(1-pyrrolidinylmethyl)phenyl]amino}-4-pyrimidinyl)-1,3-thiazol-4-yl]phenyl}-2,6-difluorobenzamide]
> 1000 nM	100 to 1000 nM	> 1000 nM	< 100 nM	< 100 nM	CC(C)c1nc(-c2cccc(NC(=O)c3c(F)cccc3F)c2)c(-c2ccnc(Nc3cccc(OCCN(C)C)c3)n2)s1 [Example 122]
